# Experiments:
# Barnyard grass = experiment: Weed and crop Petri dish bioassay, radicle length; assay type: in vivo, Echinochloa crus-galli (L.) Beauv.
# Procedure: (§1) m-Tyrosine activity was bioassayed using selected weed and crop species. Growth inhibition as measured by radicle elongation was evaluated in dandelion (Taraxacum officinale Weber in […].), large crabgrass (Digitaria sanguinalis (L.) Scop.), velvetleaf (Abutilon theophrasti Medicus), black medic (Medicago lupulina L.), curly cress (Lepidium sativum L.), bamyardgrass (Echinochloa crus-galli.(L.) Beauv.), lettuce (Lactuca sativa L.), purslane (Portulaca oleracea L.), annual bluegrass (Poa annua L.), birdsfoot trefoil (Lotus corniculatus L.), broadleaf plantain (Plantago major L.), mouseear chickweed (Cerastium vulgatum L.), common chickweed (Stellaria media (L.) Vill.), white clover (Trifolium repens L.), wheat (Triticum aestivum L.), tomato (Lycopersicon esculentum var. esculentum P. Mill.), tobacco (Nicotiana tobacum L.), and sorghum sudangrass hybrid (Sorghum bicolor x Sudanese). Weeds were purchased from HerbiSeeds, England, tomato seeds were purchased from Agway (Ithaca N.Y.), and wheat, sudex and tobacco where donated by Pioneer Seeds (Johnson, Iowa). Seeds were sterilized by a water: ethanol mixture (1:1) for one minute and rinsed three times thoroughly in distilled water. […] At the end of the incubation period, radicle length was measured. […]
# [1] = system: Arabidopsis thaliana seedlings; experiment: Arabidopsis root growth inhibition in growth media; assay type: in vivo; settings: Arabidopsis thaliana; applied to the growth media; mixture of D and L m-tyrosine; read-out: concentration reducing root length of Arabidopsis by 50%
# [2] = system: Metarhizium anisopliae (Metsch.); experiment: Fungal disc assay; assay type: cell-based; settings: even at concentrations as high as 25 mM
# Procedure: m-Tyrosine was evaluated for its effect on several bacteria (Bacillus cereus, Bacillus subtilis, and Escherichia coli) grown on nutrient agar (Difco) plates (9 cm) and a fungal culture (Metarhizium anisopliae ([…].)) grown on potato dextrose agar (Difco) plates. These plates were spread with either 0.5 mL aliquots of a liquid bacterial culture grown for 18 h in nutrient broth or with 0.5 mL of a fungal spore suspension (1×10^6 spores/mL), and were allowed to dry for approximately 30 minutes. […] A disc moistened with 10 μl of water served as negative control, and positive controls consisted of discs spiked with ampicillin and tetracycline (5 μg). The plates were placed in an incubator at 25° C., and visually checked for zones of inhibition for up to four days. All experiments were performed in triplicate.
# Lettuce = experiment: Weed and crop Petri dish bioassay, radicle length; assay type: in vivo, Lactuca sativa L.
# Procedure: as §1
# Tomato = experiment: Weed and crop Petri dish bioassay, radicle length; assay type: in vivo, Lycopersicon esculentum var. esculentum P. Mill.
# Procedure: (§2) m-Tyrosine activity was bioassayed using selected weed and crop species. Growth inhibition as measured by radicle elongation was evaluated in dandelion (Taraxacum officinale Weber in […].), large crabgrass (Digitaria sanguinalis (L.) Scop.), velvetleaf (Abutilon theophrasti Medicus), black medic (Medicago lupulina L.), curly cress (Lepidium sativum L.), bamyardgrass (Echinochloa crus-galli.(L.) Beauv.), lettuce (Lactuca sativa L.), purslane (Portulaca oleracea L.), annual bluegrass (Poa annua L.), birdsfoot trefoil (Lotus corniculatus L.), broadleaf plantain (Plantago major L.), mouseear chickweed (Cerastium vulgatum L.), common chickweed (Stellaria media (L.) Vill.), white clover (Trifolium repens L.), wheat (Triticum aestivum L.), tomato (Lycopersicon esculentum var. esculentum P. Mill.), tobacco (Nicotiana tobacum L.), and sorghum sudangrass hybrid (Sorghum bicolor x Sudanese). Weeds were purchased from HerbiSeeds, England, tomato seeds were purchased from Agway (Ithaca N.Y.), and wheat, sudex and tobacco where donated by Pioneer Seeds (Johnson, Iowa). Seeds were sterilized by a water: ethanol mixture (1:1) for one minute and rinsed three times thoroughly in distilled water. The simple phytotoxicity bioassay utilized consisted of the evaluation of radicle length of ten sterilized seeds of each weed/crop deposited on a filter paper containing the appropriate m-tyrosine test solution in 4.5 cm Petri dishes. […] A 1000 μL aliquot of the appropriate test solution was added to individual Petri dishes lined with Whatman No. 1 filter paper. Control dishes received 1000 μL of water. After seeds were placed on moistened filter paper, Petri dishes were transferred to a controlled environment with a light regime of 45,33 photon m^-2 s^-1 and maintained at an average temperature of 25° C. for 7 days. At the end of the incubation period, radicle length was measured. Treatments were replicated three times, and the experiment for each plant species tested was repeated three times.
# Annual bluegrass = experiment: Weed and crop Petri dish bioassay, radicle length; assay type: in vivo, Poa annua L.
# Procedure: as §2
# [3] = system: onion (Allium cepa L.) root cells; experiment: Mitotic index of onion root tip cells; assay type: cell-based
# Procedure: Root tips were stained for light microscopy examination using the Feulgen reaction. Root tips of three mm length were treated with a mixture of absolute ethanol:glacial acetic acid for two hours. The ethanol-glacial acetic acid mixture was removed and the tips were rinsed with distilled water. […] For each m-tyrosine concentration, five individual root tips were removed and macerated in a drop of 45% acetic acid on a slide, and the mitotic stages of the onion root tip cells were observed under a light microscope. […] One thousand cells were recorded per replication, resulting in observation of a total of 3000 cells per treatment. The experiment was repeated three times.
# crabgrass seedlings = experiment: Soil bioassay, crabgrass root growth; assay type: in vivo, Digitaria sanguinalis L.; settings: Digitaria sanguinalis, soil media, read-out: concentration reducing root elongation by 50%
# Excerpt: Large crabgrass was also included in the first two experiments because it is a common weed in turf settings. Prior experiments have shown that m-tyrosine is a potent inhibitor of root growth of large crabgrass and lettuce (Bertin et al., “Laboratory Assessment of the Allelopathic Effects of Fine Leaf Fescues,” J. Chem. Ecol. 29:1919-1937 (2003), which is hereby incorporated by reference in its entirety). Soil and MetroMix, as described as previously, were placed in 9-cm petri dishes, and 15 lettuce or crabgrass seeds were sown on the soil surface. Each experiment was replicated three times and was repeated over time.
# Common Chickweed = experiment: Weed and crop Petri dish bioassay, radicle length; assay type: in vivo, Stellaria media (L.) Vill.
# Procedure: as §1
smiles,measurement,setting,value
"N[C@@H](Cc1cccc(O)c1)C(=O)O [m-tyrosine, 3-hydroxyphenylalanine]",I10,Barnyard grass,80 µM
same,IC50,"Barnyard grass; Echinochloa crus-galli, read-out: I50",257 µM
same,IC50,[1],2 µM
same,sensitivity of fungal cultures,[2],not sensitive
same,I10,Lettuce,6 µM
same,IC50,"Lettuce; Lactuca sativa, read-out: I50",20 µM
same,I10,Tomato,35 µM
same,I100,Tomato,160 µM
same,IC50,"Tomato; Solanum lycopersicum, read-out: I50",75 µM
same,I10,Annual bluegrass,25 µM
same,I100,Annual bluegrass,320 µM
same,IC50,"Annual bluegrass; Poa annua, read-out: I50",47 µM
same,mitotic indices in all phases of mitosis,[3]; 20 μM,significantly reduced
same,"Anaphase, total cells observed",[3]; m-tyrosine 10 (μM),1.6%
same,"Metaphase, total cells observed",[3]; m-tyrosine 10 (μM),1.4%
same,"Prophase, total cells observed",[3]; m-tyrosine 10 (μM),2.2%
same,"Telophase, total cells observed",[3]; m-tyrosine 10 (μM),2%
same,"Anaphase, total cells observed",[3]; m-tyrosine 20 (μM),1.1%
same,"Metaphase, total cells observed",[3]; m-tyrosine 20 (μM),1%
same,"Prophase, total cells observed",[3]; m-tyrosine 20 (μM),2%
same,"Telophase, total cells observed",[3]; m-tyrosine 20 (μM),1%
same,"Anaphase, total cells observed",[3]; m-tyrosine 40 (μM),0.6%
same,"Metaphase, total cells observed",[3]; m-tyrosine 40 (μM),0.4%
same,"Prophase, total cells observed",[3]; m-tyrosine 40 (μM),1%
same,"Telophase, total cells observed",[3]; m-tyrosine 40 (μM),0.2%
same,"Anaphase, total cells observed",[3]; m-tyrosine 80 (μM),0.5%
same,"Metaphase, total cells observed",[3]; m-tyrosine 80 (μM),0%
same,"Prophase, total cells observed",[3]; m-tyrosine 80 (μM),0.5%
same,"Telophase, total cells observed",[3]; m-tyrosine 80 (μM),0.2%
same,"Anaphase, total cells observed",[3]; m-tyrosine 160 (μM),0%
same,"Metaphase, total cells observed",[3]; m-tyrosine 160 (μM),0%
same,"Prophase, total cells observed",[3]; m-tyrosine 160 (μM),0.2%
same,"Telophase, total cells observed",[3]; m-tyrosine 160 (μM),0.3%
same,IC50,crabgrass seedlings,4000 µM
same,I10,Common Chickweed,80 µM
same,I100,Common Chickweed,320 µM

# Source: patent US8461085B2, “Bioherbicide from Festuca spp” (Cornell Research Foundation, Inc., priority 2005, dated 2013)
